The subject of data set [1] is Tagia sp. As to conditions: acute; duration: 14 days; mortality.
Data set [2] concerns Oncorhynchus mykiss.
The test system of data set [3] is Apis mellifera. The conditions noted are these: acute, mortality.
The test system of data set [4] is Colinus virginianus. As to conditions: acute; oral; diet; mortality.
Data set [5] concerns Rattus norvegicus. The conditions noted are these: for LD50: acute, mortality.
Data set [6] has as its system Gallus gallus. As to conditions: for NOAEL: body weight.
For data set [7], the system named is Neovison vison. The conditions noted are these: reproduction developmental; oral; diet; F; reproduction.
Data set [8] has as its system Anatidae. The conditions noted are these: short-term; duration: 17 days; oral; feed; M; histopathology: nonneoplastic.
Data set [9] concerns Meleagris sp. As to conditions: short-term; duration: 3 weeks; oral; feed; F; body weight.
The subject of data set [10] is Oryctolagus sp. The conditions noted are these: no effects.
Data set [11] deals with Anabaena flosaquae. The conditions noted are these: acute; duration: 72 hours; biomass.
The subject of data set [12] is Bovidae. As to conditions: oral.
Data set [13] has as its system Plant. As to conditions: not reported; other.
Data set [14] deals with Numida meleagris. As to conditions: subchronic; duration: 85 days; no effects.
Data set [15] has as its system Sus scrofa. The conditions noted are these: Not specified; for LEL: acute, duration: 3 days, oral, no effects.
Data set [16] concerns Bibionidae. As to conditions: chronic/long-term.
In data set [17] the test system is Pontoscolex corethrurus. As to conditions: chronic/long-term; reproduction.
The test system of data set [18] is Mus musculus.
In data set [19] the test system is Capra sp. The conditions noted are these: subchronic; no effects.
Data set [20] has as its system Equus caballus. As to conditions: not reported; neurology.
Data set [21] has as its system Pelteobagrus fulvidraco. As to conditions: subchronic; duration: 10 weeks; oral; feed; histopathology: nonneoplastic.
Data set [22] has as its system Carassius carassius. The conditions noted are these: not reported; oral; feed; histopathology: nonneoplastic.
For data set [23], the system named is Landoltia sp. The conditions noted are these: chronic/long-term; duration: 14 days.
In data set [24] the test system is Cyprinodon variegatus. As to conditions: chronic/long-term; duration: 90 days; development.
The subject of data set [25] is Neomysis kadiakensis. As to conditions: chronic/long-term; duration: 28 days; other.
The test system of data set [26] is Leuciscus idus. As to conditions: acute; duration: 96 hours; mortality.
Data set [27] has as its system Macaca mulatta. The conditions noted are these: acute; oral; neurology.
Data set [28] relates to Felidae. The conditions noted are these: short-term; duration: 10 days; oral; diet; Cat; no effects.
Data set [29] deals with Ceriodaphnia dubia. The conditions noted are these: chronic/long-term; duration: 7 days; reproduction.
In data set [30] the test system is Lepomis macrochirus. The conditions noted are these: acute; duration: 96 hours; mortality.
In data set [31] the test system is Anas platyrhynchos. As to conditions: oral, mortality.
For data set [32], the system named is Canidae. As to conditions: chronic; duration: 1 years; oral; Dog Other; clinical signs.

In brackets after ≈: the same amount, converted by molar mass.

As to `[S]` [Sulfur], the LC50 in data set [1] is greater than 1580 mg/kg; in data set [2] (acute, duration: 96 hours, mortality), greater than 0.063 µg/mL; in [4], greater than 1330 mg/kg-day. In addition, the NOEC in data set [2] (chronic/long-term, duration: 28 days, growth) was greater than 0.063 mg/L. Also, the LD50 in data set [3] (oral, unspecified) is greater than 100 µg/piece; the LD50 (acute, oral, unspecified, mortality) was greater than 5000 mg/kg; the LD50 in [5] (oral) was greater than 1760 mg/kg. Also, the NOAEL – broadly, the highest tested level that showed no adverse finding – in data set [5] (short-term, duration: 28 days, no effects) is greater than 1000 mg/kg-day; in data set [5] (subchronic, duration: 90 days, no effects) it was 1000 mg/kg-day.

With `O=c1cc(O)c1=O` [Moniliformin], the NOAEL in data set [6] (chronic, duration: 14 months, oral, diet) turned out to be 3.8 mg/kg-day; in [6] (subchronic, duration: 7 weeks, oral, diet), 1.4 mg/kg-day; in data set [7], 0.92 mg/kg-day; in [8], 2.3 mg/kg-day; in data set [5] (short-term, duration: 28 days, oral, gavage, M, Sprague-Dawley, clinical signs), 6 mg/kg-day; in [9], 1.6 mg/kg-day.

`N#CC(c1ccc(Cl)cc1)c1c(Cl)cc(-n2ncc(=O)[nH]c2=O)cc1Cl` (centres undefined) [Diclazuril]: the LEL was 6 mg/kg-day in [10] (repeat dose other, F); 6 mg/kg-day in data set [10] (subchronic, duration: 35 days, oral, diet, M/F, New Zealand); 25 mg/kg-day in data set [6] (subchronic, duration: 37 days, no effects); no more than 5 mg/kg-day in data set [12] (acute, duration: 3 days, no effects); no more than 25 mg/kg in data set [14]; 10 mg/kg-day in data set [15]. Also, in data set [19], the LEL is no more than 80 mg/kg. This compound had an NOEC in data set [11] greater than 10.3 µg/L; an NOEC in data set [13] of 50.3 mg/kg; an NOEC in [16] (duration: 28 days, seedling emergence) of 13.3 mg/kg; an NOEC in data set [17] of 50 mg/kg; an NOEC (repeat dose other, other) greater than 1 mg/kg-day. The compound further returned an NOAEL in data set [18] (chronic, duration: 2 years, M, histopathology: nonneoplastic) of 2.9 mg/kg-day.

With `CCCC[C@@H](C)[C@@H](OC(=O)C[C@@H](CC(=O)O)C(=O)O)[C@H](C[C@@H](C)C[C@H](O)CCCC[C@@H](O)C[C@H](O)[C@H](C)N)OC(=O)C[C@@H](CC(=O)O)C(=O)O` [Fumonisin B1], the LOAEL (in general, the lowest dose or exposure tested at which an adverse effect was seen) in data set [20] was 0.2 mg/kg-day; in data set [6] (short-term, duration: 21 days, oral, diet, clinical chemistry), 2 mg/kg-day; in data set [12] (chronic, duration: 253 days, diet, M, histopathology: nonneoplastic), 2.4 mg/kg-day; in data set [15] (subchronic, clinical chemistry) it was 0.2 mg/kg-day; in [22], 10 mg/kg. The results for the NOAEL in [21] and in [5] (subchronic) were 20 mg/kg and 0.2 mg/kg-day, respectively.

With `Fc1ccc(Oc2ccnc3cc(Cl)cc(Cl)c23)cc1` [Quinoxyfen], the NOEC in data set [23] worked out at 0.149 mg/L; in data set [16] (duration: 27 days), 0.128 mg/L; in [24] it was 0.00409 mg/L; in [25], 0.00152 mg/L.

With `O=C(O)CCCc1c[nH]c2ccccc12` [Indole-3-butyric acid], the LC50 in data set [26] came out at 210 µg/mL (≈ 1030 µM). Besides, the LD50 in data set [18] (acute, oral, mortality) turned out to be 1920 mg/kg-day.

Take `C/C(=C/C=C/[C@@H](C)C(=O)O)[C@H]1CN[C@H](C(=O)O)[C@H]1CC(=O)O` [L-Domoic acid]: the LOAEL in data set [27] is 5 mg/kg-day.

Take `Nc1nc(N)nc(N)n1` [Melamine]: the LEL in data set [2] (acute, duration: 3 days, oral, capsule, no effects) stood at 456 mg/kg-day; in data set [15] (diet), 400 mg/kg-day; in data set [28], 181 mg/kg-day. The NOAEL in data set [5] (subchronic, duration: 13 weeks, oral) was determined as 63 mg/kg-day.

Compound `CNC(=O)Oc1cccc2c1OC(C)(C)C2` [Carbofuran] showed an NOEC in data set [29] of 0.00016 mg/L. Also, the LC50 in [30] was 0.18 µg/mL (≈ 0.814 µM); in data set [31] (short-term, feed) it was 1.6 mg/kg-day. The LD50 is 0.0357 µg/piece in data set [3] (dermal); 0.71 mg/kg in [31] (acute, unspecified, M); less than 5.6 mg/kg in data set [5] (oral). Moreover, the NOAEL in data set [5] (reproduction developmental, clinical signs) was 0.1 mg/kg-day; in data set [32], 0.1 mg/kg-day.

The record behind these values is EPA's ToxValDB 9.5.
